# Reference: patent US20230272077A1, “PD-1 SIGNAL INHIBITOR COMBINATION THERAPY” (KYOTO UNIVERSITY, priority 2015, published 2023)
# Entries after “also recorded” stand apart in the source; their conditions may differ.
# Legend:
# T-bet and Eomes = T-bet and Eomes expression by flow cytometry in DLN CD8+ T cells; assay type: in vivo, mouse; conditions: combined with PD-L1 antibody
# Procedure: (§1) FIG. 15. […] Data represent the means±SEM of five mice. *p<0.05, **p<0.01, one-way ANOVA.
# (§2) The following antibodies recognizing the indicated antigens were used: CD44 (1M7), CD45.2 (104), CD45.1 (A20), CD8 (53-6.7), CD62L (MEL-14), T-bet (4B/O) and IFN-7 (XMG1.2), MHC class I (AF6-88.5), CD155 (Tx56) and VISTA (MIH63) from BioLegend; p-AMPK (EPR5683) from Ancam; p-mTOR (MRRBY), Eomes (Danllmag) and PD-L1 (M1H5) from eBioscience. All flow cytometry experiments were performed on a FACS Canto II (BD Biosciences) and analyzed using FlowJo software (FLOWJO, LLC). For assessment of intracellular phosphoproteins, cells were permeabilized with 0.5% Triton-X and fixed with 1.5% PFA before staining. Determination of mitochondrial mass, membrane potential, mitochondrial superoxide and cellular ROS was performed using MitoTracker Green, Mito-Tracker Deep Red, MitoSOX Red, and CellROX Green reagents, respectively (all from Life Technologies). These dyes were added to cells to a final concentration of 0.125 μM, 0.125 μM, 5.0 μM and 0.625 μM, respectively, and incubated at 37° C. in a 5% CO2 humidified incubator for 30 min.
# PGC-1α = PGC-1α expression (Western blotting, real-time RT-PCR); assay type: in vivo, mouse; conditions: combination therapy together with PD-L1 antibody
# Procedure: RNA was isolated from CD8^+ T cells or tumor cells with the RNeasy Mini Kit (Qiagen), followed by cDNA synthesis by reverse transcription. Real-time PCR for PGC-1α was performed using the following primers: Forward […] (SEQ ID NO: 1) and Reverse […] (SEQ ID NO: 2). To analyze the expression levels of genes associated with apoptosis and mitochondrial energy metabolism, RT2 Profiler PCR Array Gene Expression Kit PAMM-012Z or PAMM-008Z (Qiagen) was used. The list of genes included in this assay can be found in www.sabiosciences.com/Apoptosis.php.
# CD8^+ T cells were isolated using mouse CD8 Microbeads (Miltenyi Biotec). After washing with PBS twice, 2×10^6 cells were solubilized in a lysis buffer containing 30 mM Tris-HCl (pH.7.4), 150 mM NaCl, 10% glycerol, 0.1% SDS, 1% Triton-X-100, 0.05% Na-Doc, 5 mM EDTA (pH.8.0), protease inhibitor mixture (Roche Molecular Biochemicals) and phosphatase inhibitors (Nacalai Tesque). After measurement of protein concentrations by DC protein assay (Bio-Rad), 4 μg of proteins was mounted on 4 to 20% gradient Mini-PROTEAN TGX Gels (Bio-Rad) and electroblotted onto nitrocellulose membranes, which were then incubated in a blocking buffer of TBS containing 1% BSA. Primary antibody incubations were carried out overnight at 4° C. in blocking buffer. After washing, secondary antibody incubations were carried out at room temperature for 40 min in blocking buffer. Blots were developed with enhanced chemiluminescence (Amersham Pharmacia). Primary antibodies recognizing the following proteins were used: Phospho-mTOR (P-mTOR) (Cat #5536), Phospho-AMPKa (P-AMPK) (#2535), Phospho-p70 S6 Kinase (P-S6K) (#9205), 4E-BP1 (#9644), Phospho-Acetyl-CoA Carboxylase (P-ACC) (#3661) and SIRT1 (#9475). All the primary antibodies were obtained from Cell Signaling Technology. An antibody recognizing PGC-1α (SC-13067) was obtained from Santa Cruz.
# IFN-γ = assay: Intracellular IFN-γ staining of CD8+ T cells from digested tumor tissues; assay type: in vivo, mouse; conditions: CD8+ T cells in tumors; combined with PD-L1 antibody
# Procedure: as §1, §2
# CD8+ T cells = system: CD8+ T cells
# Procedure: FIG. 6. […] Draining lymph node (DLN) cells on day 14 were stained with anti-CD8, -CD62L, and -CD44 antibodies, and then CD8^+ T cells were gated. P1 to P3 populations were defined based on the intensities of CD62L and CD44 (Upper). The absolute cell numbers of P1 to P3 in each group were calculated. […] Representative FACS profiles of P1 to P3 (Upper). Representative FACS profiles of the P3 population stained with each mitochondrial dye in each group (Middle). MFI of P1 to P3 stained with each dye was compared between treated groups. Colors correspond to the P1 to P3 populations. […] CD45^+ CD8^+ T cells were gated, and their CD62L and CD44 phenotypes were analyzed (Left). The frequencies of CD8^+ T cells in CD45^+ T cells and the absolute numbers of CD45^+ CD8^+ T cells were compared between groups (Right). Data represent the means±SEM of five mice. *p<0.05, **p<0.01, one-way ANOVA analysis. FACS data are representative of five mice in each group.
# For analyzing draining lymph nodes, cells from axillary, brachial, and inguinal lymph nodes on the right side of tumor-inoculated mice were harvested and mixed. Averaged cell numbers per one lymph node were used as absolute cell numbers. For tumor analysis, tumor tissues were minced into 2- to 3-mm pieces with scissors and digested with collagenase type IV (Thermo Fisher Scientific) using a gentle MACS Dissociator (Miltenyi Biotec). The numbers of tumor cells per mg were used as absolute numbers. Tumor cells were isolated from digested tumor tissues using a Tumor Cell Isolation Kit, mouse (Miltenyi Biotec). This kit purifies tumor cells by excluding lymphocytes, red blood cells, fibroblasts, endothelial cells and tumor-associated stromal cells. The resultant tumor cell population was further isolated/purified with FACS Aria (BD Biosciences).
# as §2, with “These dyes were added to cells to a final concentration of 0.125 μM, 0.125 μM, 5.0 μM and 0.625 μM, respectively, and incubated at 37° C. in a 5% CO2 humidified incubator for 30 min.” left out
compound,measurement,setting,value
"N#CC(C#N)=NNc1ccc(OC(F)(F)F)cc1 [FCCP, carbonyl cyanide p-trifluoromethoxyphenylhydrazone]",Eomes expression,T-bet and Eomes,not Eomes expression
same,T-bet expression,T-bet and Eomes,increased T-bet expression; also recorded: up-regulated
same,expression levels of PGC-1α protein and mRNA,PGC-1α,increased
same,IFN-γ production,IFN-γ,increased; also recorded: up-regulated
same,mitochondrial membrane potential and ROS in P3 population,"CD8+ T cells; MC38-bearing mice, FCCP combined with PD-L1 antibody",significantly augmented
same,"absolute number and proportion of effector CD8+ T cells (CD62L- CD44+, P3) in DLNs","CD8+ T cells; MC38-bearing mice, PD-L1 antibody + FCCP vs anti-PD-L1 antibody alone",significantly increased; also recorded: Increase
same,numbers of naive T cells (P1) and central memory T cells (P2) in DLNs,"CD8+ T cells; MC38-bearing mice, PD-L1 antibody alone, or addition of FCCP",no further increase
same,toxic effects such as decrease in mitochondrial mass or fall in membrane potential,CD8+ T cells; at the dose used (1.2 mg/kg),did not have toxic effects
